Experiments:
[1] = tested on: rice; test: Test B flooded paddy test; type: in vivo, Oryza sativa; details: 500 g ai/ha, Flood; scale of 0 to 100 where 0 is no effect and 100 is complete control
In short: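 Paddy-water application at a 3 cm flood, young plants having two leaves. Water level maintained; greenhouse, 13–15 days; visual 0–100 control rating.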

[2] = tested on: corn; test: Test A pre-/postemergence herbicide test; type: in vivo, Zea mays; details: Postemergence
In short: (§1)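 Formulated compound (non-phytotoxic solvent, surfactant) sprayed pre- onto soil of seeded loam/sand pots or post- onto seedlings at 1–2 leaves; ~10 d greenhouse; 0–100 visual control rating versus untreated.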

[3] = tested on: foxtail, giant; test: Test C pre-/postemergence herbicide test; type: in vivo, Setaria faberii
In short: (§2)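 Compound solutions contained surfactant in a non-phytotoxic solvent. These were sprayed onto pots of loam/sand sown with seeds, and onto young plants (2 to 18 cm, 1- to 4-leaf) in sphagnum peat–vermiculite mix. Visual injury scores (0 none, 100 complete control) were recorded after 13 to 15 days.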

[4] = tested on: pigweed; test: Test A pre-/postemergence herbicide test; type: in vivo, Amaranthus retroflexus
In short: as §1

[5] = tested on: blackgrass; test: Test C pre-/postemergence herbicide test; type: in vivo, Alopecurus myosuroides
In short: as §2

[6] = tested on: velvetleaf; test: Test C pre-/postemergence herbicide test; type: in vivo, Abutilon theophrasti
In short: as §2

[7] = tested on: johnsongrass; test: Test C pre-/postemergence herbicide test; type: in vivo, Sorghum halepense
In short: as §2

[8] = tested on: giant foxtail; test: Test A pre-/postemergence herbicide test; type: in vivo, Setaria faberii
In short: as §1

[9] = tested on: barnyardgrass; test: Test A pre-/postemergence herbicide test; type: in vivo, Echinochloa crus-galli
In short: as §1

[10] = tested on: nutsedge, yellow; test: Test C pre-/postemergence herbicide test; type: in vivo, Cyperus esculentus
In short: as §2

[11] = tested on: oilseed rape; test: Test C pre-/postemergence herbicide test; type: in vivo, Brassica napus
In short: as §2

[12] = 125 g ai/ha, visual rating on 0 to 100 scale (0 no effect, 100 complete control), approx. 10 days
[13] = 500 g ai/ha, 0 to 100 scale (0 no effect, 100 complete control)
[14] = Postemergence, 31 g ai/ha, scale 0 to 100 (0 no effect, 100 complete control)
[15] = Postemergence, 62 g ai/ha, scale 0 (no effect) to 100 (complete control)
[16] = Postemergence, 125 g ai/ha, scale 0 to 100 (0 no effect, 100 complete control)
[17] = Postemergence, 250 g ai/ha, scale 0 to 100 (0 no effect, 100 complete control)
[18] = Preemergence, 31 g ai/ha, scale 0 to 100, 0 is no effect and 100 is complete control
[19] = Preemergence, 62 g ai/ha, scale 0 to 100 (0 no effect, 100 complete control)
[20] = Preemergence, 125 g ai/ha, scale 0 to 100
[21] = Postemergence, 125 g ai/ha, visual rating on 0 to 100 scale (0 no effect, 100 complete control), approx. 10 days
[22] = Postemergence, 500 g ai/ha, 0 to 100 scale (0 no effect, 100 complete control)
[23] = Preemergence, 125 g ai/ha, 0 to 100 scale where 0 is no effect and 100 is complete control
[24] = Preemergence, 500 g ai/ha, visual rating on 0 to 100 scale (0 no effect, 100 complete control)

Q: `O=C1NCC(c2cccc(Br)c2)C1C(=O)Nc1cccc(F)c1F` (stereo not shown) [Compound 309] was tested. Which “Plant response rating, Rice” value [1] did it give?
A: Its value is 0.

Q: What about the “Plant response rating, Corn” value [2, 12] of the same compound?
A: The value was 30.

Q: What about the “Plant response rating, Corn” value [2, 13] of the same compound?
A: The value was 80.

Q: What about the “Plant response rating, Foxtail, Giant” value [3, 14] of the same compound?
A: The value was 10.

Q: And the “Plant response rating, Foxtail, Giant” value [3, 15]?
A: The value was 0.

Q: What about the “Plant response rating, Foxtail, Giant” value [3, 16] of the same compound?
A: Its value is 40.

Q: What about the “Plant response rating, Foxtail, Giant” value [3, 17] of the same compound?
A: The value was 80.

Q: What about the “Foxtail, Giant plant response rating” value [3, 18] of the same compound?
A: The value was 90.

Q: What about the “Foxtail, Giant plant response rating” value [3, 19] of the same compound?
A: Its value is 90.

Q: And the “Plant response rating, Foxtail, Giant” value [3, 20]?
A: Its value is 90.

Q: And the “Plant response rating (scale of 0 to 100), Foxtail, Giant” value ([3]; Preemergence, 250 g ai/ha)?
A: The value was 95.

Q: And the “Plant response rating, Pigweed” value [4, 21]?
A: Its value is 0.

Q: And the “Plant response rating, Pigweed” value [4, 22]?
A: Its value is 0.

Q: What about the “Plant response rating, Pigweed” value [4, 23] of the same compound?
A: The value was 0.

Q: What about the “Pigweed plant response rating” value [4, 24] of the same compound?
A: Its value is 0.

Q: And the “Plant response rating, Blackgrass” value [5, 14]?
A: The value was 0.

Q: And the “Plant response rating, Blackgrass” value [5, 15]?
A: Its value is 0.

Q: And the “Plant response rating, Blackgrass” value [5, 16]?
A: Its value is 5.

Q: And the “Plant response rating, Blackgrass” value [5, 17]?
A: The value was 5.

Q: What about the “Blackgrass plant response rating” value [5, 18] of the same compound?
A: The value was 0.

Q: What about the “Blackgrass plant response rating” value [5, 19] of the same compound?
A: The value was 0.

Q: What about the “Plant response rating, Blackgrass” value [5, 20] of the same compound?
A: Its value is 50.

Q: And the “Plant response rating (scale of 0 to 100), Blackgrass” value ([5]; Preemergence, 250 g ai/ha)?
A: The value was 45.

Q: What about the “Plant response rating, Velvetleaf” value [6, 14] of the same compound?
A: The value was 5.

Q: And the “Plant response rating, Velvetleaf” value [6, 15]?
A: Its value is 5.

Q: And the “Plant response rating, Velvetleaf” value [6, 16]?
A: Its value is 5.

Q: And the “Plant response rating, Velvetleaf” value [6, 17]?
A: The value was 15.

Q: And the “Velvetleaf plant response rating” value [6, 19]?
A: The value was 0.

Q: And the “Plant response rating, Velvetleaf” value [6, 20]?
A: The value was 0.

Q: What about the “Plant response rating (scale of 0 to 100), Velvetleaf” value ([6]; Preemergence, 250 g ai/ha) of the same compound?
A: The value was 15.

Q: What about the “Plant response rating, Johnsongrass” value [7, 14] of the same compound?
A: Its value is 0.

Q: And the “Plant response rating, Johnsongrass” value [7, 15]?
A: Its value is 0.

Q: What about the “Plant response rating, Johnsongrass” value [7, 16] of the same compound?
A: Its value is 0.

Q: And the “Plant response rating, Johnsongrass” value [7, 17]?
A: Its value is 15.

Q: And the “Johnsongrass plant response rating” value [7, 18]?
A: Its value is 10.

Q: What about the “Johnsongrass plant response rating” value [7, 19] of the same compound?
A: The value was 10.

Q: What about the “Plant response rating, Johnsongrass” value [7, 20] of the same compound?
A: The value was 60.

Q: What about the “Plant response rating (scale of 0 to 100), Johnsongrass” value ([7]; Preemergence, 250 g ai/ha) of the same compound?
A: Its value is 80.

Q: What about the “Plant response rating, Foxtail, Giant” value [8, 21] of the same compound?
A: Its value is 80.

Q: What about the “Plant response rating, Foxtail, Giant” value [8, 22] of the same compound?
A: Its value is 90.

Q: What about the “Plant response rating, Foxtail, Giant” value [8, 23] of the same compound?
A: The value was 90.

Q: What about the “Foxtail, Giant plant response rating” value [8, 24] of the same compound?
A: The value was 90.

Q: What about the “Plant response rating, Barnyardgrass” value [9, 21] of the same compound?
A: Its value is 80.

Q: And the “Plant response rating, Barnyardgrass” value [9, 22]?
A: Its value is 90.

Q: And the “Plant response rating, Barnyardgrass” value [9, 23]?
A: The value was 80.

Q: What about the “Barnyardgrass plant response rating” value [9, 24] of the same compound?
A: The value was 80.

Q: And the “Plant response rating, Nutsedge, Yellow” value [10, 14]?
A: The value was 0.

Q: And the “Plant response rating, Nutsedge, Yellow” value [10, 15]?
A: Its value is 5.

Q: What about the “Plant response rating, Nutsedge, Yellow” value [10, 16] of the same compound?
A: Its value is 30.

Q: What about the “Plant response rating, Nutsedge, Yellow” value [10, 17] of the same compound?
A: The value was 0.

Q: And the “Nutsedge, Yellow plant response rating” value [10, 18]?
A: Its value is 0.

Q: And the “Nutsedge, Yellow plant response rating” value [10, 19]?
A: Its value is 0.

Q: What about the “Plant response rating, Nutsedge, Yellow” value [10, 20] of the same compound?
A: The value was 0.

Q: And the “Plant response rating (scale of 0 to 100), Nutsedge, Yellow” value ([10]; Preemergence, 250 g ai/ha)?
A: Its value is 0.

Q: And the “Plant response rating, Oilseed Rape” value [11, 14]?
A: The value was 35.

Q: And the “Plant response rating, Oilseed Rape” value [11, 15]?
A: Its value is 30.

Q: And the “Plant response rating, Oilseed Rape” value [11, 16]?
A: The value was 40.

Q: What about the “Plant response rating, Oilseed Rape” value [11, 17] of the same compound?
A: The value was 5.

Q: And the “Oilseed Rape plant response rating” value [11, 18]?
A: Its value is 0.

Q: What about the “Oilseed Rape plant response rating” value [11, 19] of the same compound?
A: Its value is 0.

Q: What about the “Plant response rating, Oilseed Rape” value [11, 20] of the same compound?
A: The value was 50.

Q: What about the “Plant response rating (scale of 0 to 100), Oilseed Rape” value ([11]; Preemergence, 250 g ai/ha) of the same compound?
A: The value was 70.

Q: Which results are given for `O=C1NCC(c2cccc(C(F)(F)F)c2)C1C(=O)Nc1ccccc1Cl` (stereo not shown) [Compound 312]?
A: Plant response rating, Rice [1]: 20; Plant response rating, Corn [2, 12]: 60; Plant response rating, Corn [2, 13]: 80; Plant response rating, Foxtail, Giant [3, 14]: 55; Plant response rating, Foxtail, Giant [3, 15]: 75; Plant response rating, Foxtail, Giant [3, 16]: 75; Plant response rating, Foxtail, Giant [3, 17]: 80; Foxtail, Giant plant response rating [3, 18]: 90; Foxtail, Giant plant response rating [3, 19]: 90; Plant response rating, Foxtail, Giant [3, 20]: 90; Plant response rating (scale of 0 to 100), Foxtail, Giant ([3]; Preemergence, 250 g ai/ha): 95; Plant response rating, Pigweed [4, 21]: 20; Plant response rating, Pigweed [4, 22]: 30; Plant response rating, Pigweed [4, 23]: 0; Pigweed plant response rating [4, 24]: 20; Plant response rating, Blackgrass [5, 14]: 0; Plant response rating, Blackgrass [5, 15]: 0; Plant response rating, Blackgrass [5, 16]: 0; Plant response rating, Blackgrass [5, 17]: 0; Blackgrass plant response rating [5, 18]: 40; Blackgrass plant response rating [5, 19]: 45; Plant response rating, Blackgrass [5, 20]: 70; Plant response rating (scale of 0 to 100), Blackgrass ([5]; Preemergence, 250 g ai/ha): 75; Plant response rating, Velvetleaf [6, 14]: 30; Plant response rating, Velvetleaf [6, 15]: 0; Plant response rating, Velvetleaf [6, 16]: 0; Plant response rating, Velvetleaf [6, 17]: 35; Velvetleaf plant response rating [6, 19]: 15; Plant response rating, Velvetleaf [6, 20]: 20; Plant response rating (scale of 0 to 100), Velvetleaf ([6]; Preemergence, 250 g ai/ha): 40; Plant response rating, Johnsongrass [7, 14]: 0; Plant response rating, Johnsongrass [7, 15]: 0; Plant response rating, Johnsongrass [7, 16]: 25; Plant response rating, Johnsongrass [7, 17]: 0; Johnsongrass plant response rating [7, 18]: 30; Johnsongrass plant response rating [7, 19]: 50; Plant response rating, Johnsongrass [7, 20]: 80; Plant response rating (scale of 0 to 100), Johnsongrass ([7]; Preemergence, 250 g ai/ha): 85; Plant response rating, Foxtail, Giant [8, 21]: 80; Plant response rating, Foxtail, Giant [8, 22]: 90; Plant response rating, Foxtail, Giant [8, 23]: 90; Foxtail, Giant plant response rating [8, 24]: 90; Plant response rating, Barnyardgrass [9, 21]: 80; Plant response rating, Barnyardgrass [9, 22]: 90; Plant response rating, Barnyardgrass [9, 23]: 80; Barnyardgrass plant response rating [9, 24]: 90; Plant response rating, Nutsedge, Yellow [10, 14]: 0; Plant response rating, Nutsedge, Yellow [10, 15]: 0; Plant response rating, Nutsedge, Yellow [10, 16]: 0; Plant response rating, Nutsedge, Yellow [10, 17]: 0; Nutsedge, Yellow plant response rating [10, 18]: 0; Nutsedge, Yellow plant response rating [10, 19]: 35; Plant response rating, Nutsedge, Yellow [10, 20]: 0; Plant response rating (scale of 0 to 100), Nutsedge, Yellow ([10]; Preemergence, 250 g ai/ha): 0; Plant response rating, Oilseed Rape [11, 14]: 0; Plant response rating, Oilseed Rape [11, 15]: 0; Plant response rating, Oilseed Rape [11, 16]: 0; Plant response rating, Oilseed Rape [11, 17]: 0; Oilseed Rape plant response rating [11, 18]: 0; Oilseed Rape plant response rating [11, 19]: 0; Plant response rating, Oilseed Rape [11, 20]: 15; Plant response rating (scale of 0 to 100), Oilseed Rape ([11]; Preemergence, 250 g ai/ha): 30

From patent publication US10294202B2, “Pyrrolidinones as herbicides” (FMC Corporation, priority 2013, dated 2019)
